Test results from paper PMC6451745, “Development and dosimetry of ^203Pb/^212Pb-labelled PSMA ligands: bringing “the lead” into PSMA-targeted alpha therapy?” (European Journal of Nuclear Medicine and Molecular Imaging, 2019).
“And” between values parts separate entries of the source, which are not always exact repeats. Equal values may be shown once.

What was measured:
C4-2 cells = assay: Determination of specific internalization ratio; type: cell-based; details: for Specific lysate (specific internalization): ^203Pb-labelled compound 30 nM, 45 min, 2-PMPA blocking subtracted, mean ± SD n = 3
Description: In vitro and in vivo experiments were performed using the PSMA-positive C4-2 cell line, a subline of the LNCaP (lymph node carcinoma of the prostate) cell line (CRL-3314; American Type Culture Collection). C4-2 cells were cultivated in RPMI-1640 (PAN Biotech) supplemented with 10% fetal calf serum and stable glutamine (PAN Biotech). Cells were grown at 37 °C and incubated in humidified air equilibrated with 5% CO2.
For determination of the specific internalization ratio, 24-well plates were incubated for 20 min with 0.1% poly-L-lysine in PBS at room temperature and washed once with PBS. In the next step, 1 ml RPMI containing 1 × 10^5 C4-2 cells was added to each well and incubated overnight. The conditions during the experiment for each compound were: incubation at 37 °C or 4 °C with or without receptor blocking via 2-(phosphonomethyl)pentanedioic acid (2-PMPA; Axxora) at a final concentration of 500 μM. The cells were then incubated with 250 μl of a 30 nM solution of ^203Pb-labelled compound. The plates were incubated either for 45 min in a water bath at 37 °C or on ice at 4 °C. The cells were then washed three times with 1 ml ice-cold PBS and incubated with 0.5 ml glycine (50 mM in HCl, pH 2.8) for 5 min. After an additional washing step with 1 ml ice-cold PBS, the cells were lysed with 0.5 ml 0.3 M NaOH and collected, and the radioactivity was measured with a gamma counter for 1 min. The specific cellular uptake was determined as the percentage of initially added radioactivity bound per 10^6 cells (%IA/10^6 cells) by subtraction of the respective uptake under blocking conditions. All experiments were performed in triplicate.

[1] = system: patients with castration-resistant metastasized prostate cancer; assay: ^203Pb-CA012 dosimetry from planar whole-body scans in patients (QDOSE/OLINDA); type: in vivo, human; details: diagnostic ^203Pb, two patients, male adult phantom in OLINDA
Description: OLINDA calculations were performed for all nuclides individually.

C4-2 tumour-bearing mice = assay: Biodistribution (organ distribution) in tumour-bearing mice; type: in vivo; details: 0.025 nmol i.v., C4-2 tumour-bearing mice, n = 3
Description: The in vivo experiments were carried out in accordance with the laws on animal welfare of the Federal Republic of Germany. For imaging and biodistribution studies, male BALB/c nu/nu mice (20–25 g; Charles River) bearing C4-2 tumour xenografts were used. The mice were inoculated subcutaneously in the right trunk with 5 × 10^6 C4-2 cells in 50% Matrigel in Opti-MEM (1×). For small-animal imaging the mice were anaesthetized with 2% sevoflurane, and then 0.1 nmol (1.0 MBq) of the respective ^203Pb ligand was injected into a tail vein. Serial planar scans were performed using a Gamma Imager-sct (Biospace Lab, Paris, France) with a parallel collimator (35 mm/1.8 mm/0.2 mm) after 10 min, 1 h, 4 h and 24 h. Based on the imaging results, compound CA012 was chosen for biodistribution studies. Experiments were performed in triplicate. For biodistribution, 0.025 nmol (1 MBq) of labelled compound per mouse was administered by injection into a tail vein. After 10 min, 1 h, 4 h and 24 h the mice were killed, the organs were dissected and weighed, and activity was measured using a gamma counter (Packard Cobra Auto-gamma). The organ uptakes were calculated as the percentage of the injected dose per gram of tissue (%ID/g).

[2] = system: patients with castration-resistant metastasized prostate cancer; assay: Dosimetry extrapolated from ^203Pb-CA012 to ^212Pb-CA012
Description: Images were loaded into the QDOSE dosimetry software suite (ABX-CRO, Dresden) and coregistered. […] These ROIs were used to determine time–activity curves (TAC) for each organ, tumours and the total body. The first time-point (before voiding) of the uncorrected geometric mean images was used to calibrate the ROI counts in relation to the injected activity. The red marrow TAC was calculated from venous blood (six samples per patient) using established model assumptions [10, 11].
Biexponential curve fitting was applied to all organ TACs (with the exception of a few tumours and glands which had to be fitted monoexponentially). The accumulated activity was integrated assuming a linear increase from time 0 to the first measured time-point, numerically from the first to the last measured time-point using trapezoidal approximations and from the last measured time-point to infinity using the fit function. The activity in the remainder of the body was calculated by subtracting the activity of all source organs from that of the total body.
The residence times in the kidneys, liver, spleen, urinary bladder contents, red marrow and remainder of the body were exported for dose calculations in OLINDA 1.1, using the organ masses of the adult phantom [12].
OLINDA calculations were performed for all nuclides individually. […] Tumour and salivary gland volumes were measured individually based on CT segmentation and their absorbed doses were approximated using a power function interpolating the spherical model estimates [15].

[3] = projected from therapeutic activity of 100 MBq
[4] = therapeutic ^212Pb incl. daughter nuclides, extrapolated from ^203Pb, RBE 5 for alpha, OLINDA male adult phantom

SMILES: NC(=O)CN1CCN(CC(N)=O)CCN(CC(N)=O)C(Cc2ccc(NC(=S)NCC3CCC(C(=O)NC(Cc4ccc5ccccc5c4)C(=O)NCCCC[C@H](NC(=O)N[C@@H](CCC(=O)O)C(=O)O)C(=O)O)CC3)cc2)CN(CC(N)=O)CC1.[203Pb+2] (stereo partly drawn) [^203Pb-CA009]
- specific ligand-induced internalization (C4-2 cells): approximately 27 %ID/10^6 cells
- Specific lysate (specific internalization) (C4-2 cells): 27.4 ± 2.4 %IA/10^6 cells

SMILES: NC(=O)CN1CCN(CC(N)=O)CCN(CC(=O)NCC2CCC(C(=O)NC(Cc3ccc4ccccc4c3)C(=O)NCCCC[C@H](NC(=O)N[C@@H](CCC(=O)O)C(=O)O)C(=O)O)CC2)CCN(CC(N)=O)CC1.[203Pb+2] (stereo partly drawn) [^203Pb-CA012]
- Effective dose [1]: 2.4 mSv/100 MBq
- Effective dose equivalent [1]: 3.6 mSv/100 MBq
- Equivalent dose, Adrenals [1]: 2.8 mSv/100 MBq
- Equivalent dose, Brain [1]: 1.2 mSv/100 MBq
- Equivalent dose, Breasts [1]: 1.1 mSv/100 MBq
- Equivalent dose, Gallbladder [1]: 2.8 mSv/100 MBq
- Equivalent dose, Heart [1]: 1.8 mSv/100 MBq
- Equivalent dose, Kidneys [1]: 18.1 mSv/100 MBq
- Equivalent dose, Liver [1]: 4.3 mSv/100 MBq
- Equivalent dose, Lower large intestine [1]: 2.0 mSv/100 MBq
- Equivalent dose, Lungs [1]: 1.6 mSv/100 MBq
- Equivalent dose, Muscle [1]: 1.5 mSv/100 MBq
- Equivalent dose, Osteogenic cells [1]: 3.7 mSv/100 MBq
- Equivalent dose, Pancreas [1]: 2.8 mSv/100 MBq
- Equivalent dose, Red marrow [1]: 1.8 mSv/100 MBq
- Equivalent dose, Skin [1]: 1.0 mSv/100 MBq
- Equivalent dose, Small intestine [1]: 2.1 mSv/100 MBq
- Equivalent dose, Spleen [1]: 6.7 mSv/100 MBq
- Equivalent dose, Stomach [1]: 2.0 mSv/100 MBq
- Equivalent dose, Testes [1]: 1.4 mSv/100 MBq
- Equivalent dose, Thymus [1]: 1.4 mSv/100 MBq
- Equivalent dose, Thyroid [1]: 1.4 mSv/100 MBq
- Equivalent dose, Total body [1]: 1.7 mSv/100 MBq
- Equivalent dose, Upper large intestine [1]: 2.1 mSv/100 MBq
- Equivalent dose, Urinary bladder [1]: 6.7 mSv/100 MBq
- specific ligand-induced internalization (C4-2 cells): ~16 %IA/10^6 cells
- Specific lysate (specific internalization) (C4-2 cells): 15.6 ± 2.1 %IA/10^6 cells
- Organ distribution, Blood (C4-2 tumour-bearing mice; 10 min): 5.37 ± 1.95 % ID/g
- Organ distribution, Brain (C4-2 tumour-bearing mice; 10 min): 0.14 ± 0.04 % ID/g
- Organ distribution, Heart (C4-2 tumour-bearing mice; 10 min): 1.78 ± 0.66 % ID/g
- Organ distribution, Kidneys (C4-2 tumour-bearing mice; 10 min): 26.97 ± 8.74 % ID/g
- Organ distribution, Liver (C4-2 tumour-bearing mice; 10 min): 1.25 ± 0.43 % ID/g
- Organ distribution, Lung (C4-2 tumour-bearing mice; 10 min): 4.31 ± 1.19 % ID/g
- Organ distribution, Muscle (C4-2 tumour-bearing mice; 10 min): 1.20 ± 0.43 % ID/g
- Organ distribution, Small intestine (C4-2 tumour-bearing mice; 10 min): 1.75 ± 0.48 % ID/g
- Organ distribution, Spleen (C4-2 tumour-bearing mice; 10 min): 1.97 ± 1.07 % ID/g
- Organ distribution, Tumor (C4-2 tumour-bearing mice; 10 min): 12.33 ± 1.92 % ID/g
- Organ distribution, Blood (C4-2 tumour-bearing mice; 1 h): 0.26 ± 0.10 % ID/g
- Organ distribution, Brain (C4-2 tumour-bearing mice; 1 h): 0.02 ± 0.00 % ID/g
- Organ distribution, Heart (C4-2 tumour-bearing mice; 1 h): 0.10 ± 0.03 % ID/g
- Organ distribution, Kidneys (C4-2 tumour-bearing mice; 1 h): 5.08 ± 2.45 % ID/g
- Organ distribution, Liver (C4-2 tumour-bearing mice; 1 h): 0.20 ± 0.10 % ID/g
- Organ distribution, Lung (C4-2 tumour-bearing mice; 1 h): 0.33 ± 0.13 % ID/g
- Organ distribution, Muscle (C4-2 tumour-bearing mice; 1 h): 0.05 ± 0.03 % ID/g
- Organ distribution, Small intestine (C4-2 tumour-bearing mice; 1 h): 0.10 ± 0.04 % ID/g
- Organ distribution, Spleen (C4-2 tumour-bearing mice; 1 h): 0.16 ± 0.08 % ID/g
- Organ distribution, Tumor (C4-2 tumour-bearing mice; 1 h, listed as 203Pb-PSMA-CA012): 8.4 ± 3.7 % ID/g and 8.37 ± 3.67 % ID/g
- Organ distribution, Blood (C4-2 tumour-bearing mice; 4 h): 0.05 ± 0.01 % ID/g
- Organ distribution, Brain (C4-2 tumour-bearing mice; 4 h): 0.02 ± 0.01 % ID/g
- Organ distribution, Heart (C4-2 tumour-bearing mice; 4 h): 0.04 ± 0.02 % ID/g
- Organ distribution, Kidneys (C4-2 tumour-bearing mice; 4 h): 1.61 ± 0.28 % ID/g
- Organ distribution, Liver (C4-2 tumour-bearing mice; 4 h): 0.09 ± 0.01 % ID/g
- Organ distribution, Lung (C4-2 tumour-bearing mice; 4 h): 0.10 ±0.03 % ID/g
- Organ distribution, Muscle (C4-2 tumour-bearing mice; 4 h): 0.06 ± 0.03 % ID/g
- Organ distribution, Small intestine (C4-2 tumour-bearing mice; 4 h): 0.07 ± 0.05 % ID/g
- Organ distribution, Spleen (C4-2 tumour-bearing mice; 4 h): 0.07 ± 0.01 % ID/g
- Organ distribution, Tumor (C4-2 tumour-bearing mice; 4 h): 7.81 ±0.86 % ID/g
- Organ distribution, Blood (C4-2 tumour-bearing mice; 24 h): 0.03 ± 0.00 % ID/g
- Organ distribution, Brain (C4-2 tumour-bearing mice; 24 h): 0.01 ± 0.00 % ID/g
- Organ distribution, Heart (C4-2 tumour-bearing mice; 24 h): 0.02 ± 0.00 % ID/g
- Organ distribution, Kidneys (C4-2 tumour-bearing mice; 24 h): 0.89 ± 0.14 % ID/g
- Organ distribution, Liver (C4-2 tumour-bearing mice; 24 h): 0.10 ± 0.02 % ID/g
- Organ distribution, Lung (C4-2 tumour-bearing mice; 24 h): 0.05 ± 0.01 % ID/g
- Organ distribution, Muscle (C4-2 tumour-bearing mice; 24 h): 0.02 ± 0.00 % ID/g
- Organ distribution, Small intestine (C4-2 tumour-bearing mice; 24 h): 0.02 ± 0.00 % ID/g
- Organ distribution, Spleen (C4-2 tumour-bearing mice; 24 h): 0.07 ± 0.02 % ID/g
- Organ distribution, Tumor (C4-2 tumour-bearing mice; 24 h): 3.30 ± 1.60 % ID/g

SMILES: NC(=O)CN1CCN(CC(N)=O)CCN(CC(=O)NC[C@H]2CC[C@H](C(=O)N[C@@H](Cc3ccc4ccccc4c3)C(=O)NCCCC[C@H](NC(=O)N[C@@H](CCC(=O)O)C(=O)O)C(=O)O)CC2)CCN(CC(N)=O)CC1.[212Pb+2] [^212Pb-CA012]
- cumulative dose limited by the kidneys (dose-limiting organ) ([2]; preliminary approximation): 400–600 MBq
- Equivalent dose, Liver [2, 3]: 0.7 SvRBE5
- Equivalent dose, other organs [2, 3]: 0.2 SvRBE5
- Tissue equivalent dose, Kidneys [2, 3]: 4.9 SvRBE5
- Tissue equivalent dose, Red marrow ([2]; projected from therapeutic activity of 100 MBq, instant decay of daughter nuclides assumed): 0.6 SvRBE5
- Effective dose [2, 4]: 415.1 mSv RBE5/100 Mbq
- Effective dose equivalent [2, 4]: 748.9 mSv RBE5/100 Mbq
- Equivalent dose, Adrenals [2, 4]: 193.1 mSv RBE5/100 Mbq
- Equivalent dose, Brain [2, 4]: 190.0 mSv RBE5/100 Mbq
- Equivalent dose, Breasts [2, 4]: 190.0 mSv RBE5/100 Mbq
- Equivalent dose, Gallbladder [2, 4]: 192.9 mSv RBE5/100 Mbq
- Equivalent dose, Heart [2, 4]: 191.3 mSv RBE5/100 Mbq
- Equivalent dose, Kidneys [2, 4]: 4906.6 mSv RBE5/100 Mbq
- Equivalent dose, Liver [2, 4]: 703.3 mSv RBE5/100 Mbq
- Equivalent dose, Lower large intestine [2, 4]: 191.3 mSv RBE5/100 Mbq
- Equivalent dose, Lungs [2, 4]: 190.9 mSv RBE5/100 Mbq
- Equivalent dose, Muscle [2, 4]: 190.7 mSv RBE5/100 Mbq
- Equivalent dose, Osteogenic cells [2, 4]: 3796.4 mSv RBE5/100 Mbq
- Equivalent dose, Pancreas [2, 4]: 192.9 mSv RBE5/100 Mbq
- Equivalent dose, Red marrow [2, 4]: 615.1 mSv RBE5/100 Mbq
- Equivalent dose, Skin [2, 4]: 189.8 mSv RBE5/100 Mbq
- Equivalent dose, Small intestine [2, 4]: 191.8 mSv RBE5/100 Mbq
- Equivalent dose, Spleen [2, 4]: 1606.7 mSv RBE5/100 Mbq
- Equivalent dose, Stomach [2, 4]: 191.8 mSv RBE5/100 Mbq
- Equivalent dose, Testes [2, 4]: 190.4 mSv RBE5/100 Mbq
- Equivalent dose, Thymus [2, 4]: 190.7 mSv RBE5/100 Mbq
- Equivalent dose, Thyroid [2, 4]: 190.5 mSv RBE5/100 Mbq
- Equivalent dose, Total body [2, 4]: 237.8 mSv RBE5/100 Mbq
- Equivalent dose, Upper large intestine [2, 4]: 191.8 mSv RBE5/100 Mbq
- Equivalent dose, Urinary bladder [2, 4]: 200.2 mSv RBE5/100 Mbq
